Among the test systems are EKVX; NCI-H23; CCRF-CEM; SK-MEL-2; MDA-MB-435; A498; NCI-H226; OVCAR-8; UO-31; SK-MEL-28; UACC-62; OVCAR-4; 786-0; NCI/ADR-RES; M14; Malme-3M; TK-10; A549; SN12C; LOX IMVI.
Assay in all cases: NCI anticancer screen, dose series, 48 h

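Test compounds were applied to cells in 96-well plates for 48 hours at 5 doses. GI50 = concentration required for 50% inhibition of growth.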 Calls of active or inactive are those of the source. No stated cut-off is given here; in the data, active = GI50 up to about 1.1 µM and inactive = higher. A value given as a limit tells only on which side of the number the result lay.

Consider `COC(=O)c1c(OC(C)=O)ccc2c1c1c(OC(C)=O)c3ccccc3c(OC(C)=O)c1n2Cc1ccccc1`, for which the GI50 in the experiment with EKVX is 2.56 µM (inactive); in the experiment on NCI-H23 it was 6.03 µM (inactive); in the experiment on CCRF-CEM it was 6.68 µM (inactive); in the experiment on SK-MEL-2 it was 1.37 µM (inactive); with MDA-MB-435 it was 9.95 µM (inactive); with A498, 13.7 µM (inactive). In addition, the GI50 with NCI-H226 is 10.9 µM (inactive); in the experiment on OVCAR-8, 9.44 µM (inactive); with UO-31, 2.21 µM (inactive); in the experiment with SK-MEL-28 it was 9.77 µM (inactive); with UACC-62, 2.72 µM (inactive); in the experiment with OVCAR-4, 2.39 µM (inactive). Moreover, the GI50 in the experiment with 786-0 was 12.1 µM (inactive); in the experiment on NCI/ADR-RES, 7.06 µM (inactive); in the experiment on M14, 2.93 µM (inactive); in the experiment on Malme-3M, 7.8 µM (inactive); in the experiment on TK-10, 13 µM (inactive); with A549, 2.75 µM (inactive). The GI50 in the experiment with SN12C was 10.5 µM (inactive).
On to `N=C(N)NCCN1CC2CCC(CC2)C1`, for which the GI50 in the experiment on EKVX is > 100 µM (inactive); with NCI-H23 it was > 100 µM (inactive); in the experiment on SK-MEL-2, > 100 µM (inactive); in the experiment with MDA-MB-435, 48.5 µM (inactive); in the experiment on A498 it was > 100 µM (inactive); in the experiment with NCI-H226, 80.4 µM (inactive). The GI50 in the experiment with LOX IMVI, with OVCAR-8, with UO-31, in the experiment on SK-MEL-28, with UACC-62 and in the experiment with OVCAR-4 was > 100 µM (inactive) each time. Moreover, the GI50 in the experiment on 786-0, in the experiment on NCI/ADR-RES, in the experiment with M14, in the experiment with Malme-3M, with TK-10 and in the experiment with A549 was > 100 µM (inactive) throughout. In addition, the GI50 with SN12C is > 100 µM (inactive).
As to `O=[N+]([O-])c1ccc(C(Nc2ccccc2)P(c2ccccc2)c2ccccc2)cc1` (stereo not drawn), the GI50 in the experiment on EKVX, in the experiment with NCI-H23, in the experiment with SK-MEL-2, with MDA-MB-435, in the experiment with A498 and in the experiment with NCI-H226 was > 100 µM (inactive) each time. Further, the GI50 in the experiment on LOX IMVI, in the experiment on OVCAR-8, in the experiment with UO-31, in the experiment with SK-MEL-28, in the experiment with UACC-62 and with OVCAR-4 was > 100 µM (inactive) throughout. Besides, the GI50 in the experiment with 786-0, in the experiment with NCI/ADR-RES, in the experiment with M14, in the experiment with Malme-3M, with TK-10 and with A549 was > 100 µM (inactive) in each case. For the same molecule, the GI50 with SN12C was > 100 µM (inactive).
Consider `COc1ccc(-c2c(=O)[nH]n3c(=S)[nH]c(-c4ccccc4)nc23)cc1OC`, for which the GI50 was 22.5 µM (inactive) in the experiment with EKVX; 21.3 µM (inactive) in the experiment with NCI-H23; 9.1 µM (inactive) with CCRF-CEM; 18.9 µM (inactive) in the experiment on MDA-MB-435; 18.1 µM (inactive) in the experiment with A498; 19.2 µM (inactive) in the experiment on NCI-H226. Besides, the GI50 in the experiment with LOX IMVI is 17.2 µM (inactive); with OVCAR-8, 20.8 µM (inactive); in the experiment with UO-31, 17 µM (inactive); in the experiment on SK-MEL-28 it was 21.3 µM (inactive); with UACC-62 it was 19.1 µM (inactive); in the experiment on OVCAR-4, 21 µM (inactive). For the same molecule, the GI50 with 786-0 is 17.2 µM (inactive); in the experiment on NCI/ADR-RES it was 21.3 µM (inactive); with M14, 19.9 µM (inactive); in the experiment with Malme-3M it was 19.2 µM (inactive); in the experiment on TK-10, 22.6 µM (inactive); in the experiment with A549, 31.7 µM (inactive). Further, the GI50 with SN12C is 16.2 µM (inactive).
With `C[C@]12CCC3=NCCN3C1=CC[C@@H]1[C@@H]2CC[C@@]2(C)[C@H]1CC[C@]2(C)O`, the GI50 with EKVX was 96.4 µM (inactive); with NCI-H23, 59.6 µM (inactive); with SK-MEL-2 it was 50 µM (inactive); in the experiment with MDA-MB-435, 84.9 µM (inactive); in the experiment on A498, 26.9 µM (inactive); in the experiment with NCI-H226 it was 39.5 µM (inactive). The GI50 was 32.2 µM (inactive) with LOX IMVI; 45.9 µM (inactive) with OVCAR-8; 68.1 µM (inactive) with UO-31; 28.8 µM (inactive) with SK-MEL-28; 29.3 µM (inactive) with UACC-62; > 100 µM (inactive) in the experiment on OVCAR-4. The GI50 in the experiment with 786-0 is 14.6 µM (inactive); in the experiment with NCI/ADR-RES, > 100 µM (inactive); in the experiment on M14, 89.1 µM (inactive); with Malme-3M, 24.5 µM (inactive); with TK-10 it was 41.1 µM (inactive); in the experiment with A549, > 100 µM (inactive). The GI50 with SN12C is > 100 µM (inactive).
Take `CNC(=O)CCCNC(=O)CCCCC(=O)N(C)C`: the GI50 in the experiment with NCI-H23, in the experiment on SK-MEL-2, in the experiment on MDA-MB-435, in the experiment on A498, in the experiment with OVCAR-8 and in the experiment with UO-31 was > 100 µM (inactive) each time. In addition, the GI50 with SK-MEL-28, with UACC-62, in the experiment with OVCAR-4, in the experiment on 786-0, with NCI/ADR-RES and in the experiment on M14 was > 100 µM (inactive) throughout. For the same molecule, the GI50 in the experiment on Malme-3M, in the experiment with TK-10, in the experiment with A549 and in the experiment with SN12C was > 100 µM (inactive) each time.
As for `Oc1c([Si](c2ccccc2)(c2ccccc2)c2ccccc2)cc2ccccc2c1-c1c(O)c([Si](c2ccccc2)(c2ccccc2)c2ccccc2)cc2ccccc12`, the GI50 in the experiment with EKVX, with NCI-H23, in the experiment with CCRF-CEM, with SK-MEL-2, in the experiment with MDA-MB-435 and with A498 was > 100 µM (inactive) each time. Also, the GI50 in the experiment on LOX IMVI, in the experiment with OVCAR-8, in the experiment with UO-31, in the experiment with SK-MEL-28, in the experiment on UACC-62 and in the experiment on OVCAR-4 was > 100 µM (inactive) each time. Also, the GI50 with 786-0, with NCI/ADR-RES, with M14, in the experiment with Malme-3M, in the experiment with TK-10 and in the experiment on A549 was > 100 µM (inactive) throughout.
For the molecule `C/C(=N\NC(=S)N/N=C(\C)c1ccccn1)c1ccccn1`, the GI50 with EKVX was 1.12 µM (inactive); with NCI-H23, 4.6 µM (inactive); in the experiment on CCRF-CEM it was 0.337 µM (active); in the experiment with MDA-MB-435, 6.9 µM (inactive); in the experiment with A498, 6.03 µM (inactive); in the experiment on NCI-H226, 0.738 µM (active). Moreover, the GI50 in the experiment on LOX IMVI is 0.859 µM (active); with OVCAR-8 it was 1.05 µM (active); in the experiment with UO-31, 0.809 µM (active); in the experiment with SK-MEL-28, 8.36 µM (inactive); with UACC-62 it was 1.71 µM (inactive); in the experiment on OVCAR-4 it was 1.04 µM (active). In addition, the GI50 in the experiment with 786-0 is 2.07 µM (inactive); in the experiment on NCI/ADR-RES, 0.381 µM (active); with M14, 1.27 µM (inactive); with Malme-3M, 2.38 µM (inactive); in the experiment with TK-10, > 100 µM (inactive); with A549, 2.18 µM (inactive). Further, the GI50 in the experiment on SN12C was 0.345 µM (active).

These data come from ChEMBL document CHEMBL1201862, “PubChem BioAssay data set” (2004).
